Here are results for six compounds from PMC6294118 (Pharmaceutical research, 2018).

In data set [1] the target is T1, hOCT1 (Homo sapiens, UniProt O15245).
T1 sequence (O15245 1-554): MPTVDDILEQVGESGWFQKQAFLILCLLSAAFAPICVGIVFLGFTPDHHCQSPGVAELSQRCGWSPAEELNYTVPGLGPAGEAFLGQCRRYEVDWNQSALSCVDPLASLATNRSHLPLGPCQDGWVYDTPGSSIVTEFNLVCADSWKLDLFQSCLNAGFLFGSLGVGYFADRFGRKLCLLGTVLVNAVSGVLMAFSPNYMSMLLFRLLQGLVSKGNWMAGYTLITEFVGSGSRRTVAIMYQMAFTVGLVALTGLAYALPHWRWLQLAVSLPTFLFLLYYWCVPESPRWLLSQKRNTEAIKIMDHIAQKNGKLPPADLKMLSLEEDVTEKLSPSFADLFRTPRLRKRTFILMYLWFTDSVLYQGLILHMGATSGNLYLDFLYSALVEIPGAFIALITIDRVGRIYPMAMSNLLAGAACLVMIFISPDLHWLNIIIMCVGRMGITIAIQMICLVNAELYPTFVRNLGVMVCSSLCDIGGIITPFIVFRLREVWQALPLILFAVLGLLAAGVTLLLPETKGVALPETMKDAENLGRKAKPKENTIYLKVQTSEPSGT
The data set can be described thus: cell-based.

The target in data set [2] is T1, hOCT1. Particulars: for Cmax,unbound/IC50 (hOCT1): ratio of literature Cmax,unbound to hOCT1 IC50; for Cmax,unbound/IC50 (hOCT1, second ratio column): ratio to hOCT1 IC50, the values fit Cmax port,unbound/IC50.
In data set [3] the target is T2, hOCT2 (Homo sapiens, UniProt O15244).
T2 sequence (O15244 1-555): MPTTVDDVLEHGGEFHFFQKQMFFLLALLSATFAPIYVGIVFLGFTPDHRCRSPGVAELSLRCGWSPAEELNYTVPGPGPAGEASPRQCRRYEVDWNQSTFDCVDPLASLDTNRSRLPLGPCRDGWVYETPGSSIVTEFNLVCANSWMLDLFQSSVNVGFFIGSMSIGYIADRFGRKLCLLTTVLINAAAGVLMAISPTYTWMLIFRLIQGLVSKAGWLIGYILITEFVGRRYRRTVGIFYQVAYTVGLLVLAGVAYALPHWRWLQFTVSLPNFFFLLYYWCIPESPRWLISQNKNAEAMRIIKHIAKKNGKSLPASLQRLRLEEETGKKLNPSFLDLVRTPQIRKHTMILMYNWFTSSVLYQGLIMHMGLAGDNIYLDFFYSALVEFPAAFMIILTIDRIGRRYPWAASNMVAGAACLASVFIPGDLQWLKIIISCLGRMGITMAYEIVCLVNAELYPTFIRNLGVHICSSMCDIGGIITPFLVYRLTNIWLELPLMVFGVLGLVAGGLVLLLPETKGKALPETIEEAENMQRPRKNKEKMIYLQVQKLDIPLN
The data set can be described thus: Inhibition of hOCT2-mediated morphine uptake in HEK293-hOCT2 cells. Type of data set: cell-based. To be noted: for Cmax,unbound/IC50 (hOCT2): ratio of literature Cmax,unbound to hOCT2 IC50.

The conditions of data set [4]: cited from earlier work; for Cmax port,unbound (maximal unbound plasma concentration in the portal vein): in vivo.

Broadly, the IC50 is the concentration needed to halve the response being measured. A high value points to weaker potency.

SMILES strings stand for the structures.

In data set [1], `CN(C)CCC=C1c2ccccc2CCc2ccccc21` [Amitriptyline, amitriptyline] had an IC50 of 1.89 ± 0.77 µM. Besides, in data set [2], the “Cmax,unbound/IC50 (hOCT1)” value is 0.005 and the “Cmax,unbound/IC50 (hOCT1, second ratio column)” value worked out at 2.28. In data set [3], the IC50 was 0.41 ± 0.05 µM and the “Cmax,unbound/IC50 (hOCT2)” value is reported as 0.02. For the same compound, in data set [4], the “Cmax port,unbound (maximal unbound plasma concentration in the portal vein)” value (“Cmax port,unbound” below) was 4300 nM.
For `CNCCC(Oc1ccc(C(F)(F)F)cc1)c1ccccc1` (stereo not drawn) [Fluoxetine, fluoxetine], in data set [1], the midpoint of inhibition, the IC50, lay at 9.06 ± 3.24 µM. In data set [2], the “Cmax,unbound/IC50 (hOCT1)” value was 0.001 and the “Cmax,unbound/IC50 (hOCT1, second ratio column)” value was determined as 0.08. In data set [3], the IC50 came out at 3.32 ± 0.76 µM and the “Cmax,unbound/IC50 (hOCT2)” value is reported as 0.003. The “Cmax port,unbound” value in data set [4] is 700 nM.
In the case of `Cc1nccn1CC1CCc2c(c3ccccc3n2C)C1=O` (stereo not drawn) [Ondansetron, ondansetron], the IC50 in data set [1] is 0.27 ± 0.1 µM. Further, the “Cmax port,unbound” value in data set [4] was 80 nM.
For `CCc1c2c(nc3ccc(OC(=O)N4CCC(N5CCCCC5)CC4)cc13)-c1cc3c(c(=O)n1C2)COC(=O)[C@]3(O)CC` [Irinotecan, irinotecan], in data set [1], 1.36 ± 0.43 µM corresponded to half-maximal inhibition (IC50).
Regarding `CN1CC[C@]23c4c5ccc(O)c4O[C@H]2[C@@H](O)C=C[C@H]3[C@H]1C5` [morphine], the “Fraction of dose excreted as unchanged morphine in urine” value in data set [4] is “approximately 10%”.
As to `CN(C)CCCN1c2ccccc2CCc2ccccc21` [Imipramine, imipramine], in data set [1], half-maximal inhibition (IC50) was put at 4.03 ± 1.62 µM. In addition, in data set [4], the “Cmax port,unbound” value is 4500 nM.
